Experimental data published in US20240226036A1 (Toragen, Inc., priority 2021, published 2024).
Where two headings read alike, the source gives them in different places.

Experiments:
[1] = system: D2/3 dopamine receptor; settings: documented; cited from earlier work
[2] = system: CAL-27, CAL-33, and SCC-47 squamous cell carcinoma cell lines; assay: BrdU incorporation assays in human head and neck tumor lines; assay type: cell-based; settings: rimantadine alone; CAL-27, CAL-33, SCC-47
Experimental: (§1) Cell cycle progression was analyzed on the basis of BrdU incorporation following […] cell staining with BrdU-APC and 7-AAD using BD Pharmingen BrdU Flow Kit. (BD, Franklin Lakes, NJ) according to the manufacture's protocol. Cells are analyzed using flow cytometry. Cell proliferation is assessed by using MTT [3-(4,5-dimethylthiazol-2-yl)-2,5-diphenyltetrazolium bromide]. First, cells are seeded in 96-well plate and cultured for 2-3 days. Next, culture media is replaced with fresh media containing 0.5 mg/ml of MTT (Sigma) and the plates are incubated for 4 hours at 37° C. Then, purple formazan crystals are dissolved in lysis buffer (4 mM HCl and 0.1% NP-40 in isopropanol) and the absorbance is recorded on a TECAN infiniteM200 microplate reader (Tecan, Mannedorf, Switzerland) at a wavelength of 570 nm with absorbance at 650 nm as reference.

[3] = system: CAL-27, CAL-33, and SCC-47 squamous cell carcinoma cell lines; assay: Proliferation assays in human head and neck tumor lines; assay type: cell-based; settings: rimantadine alone; CAL-27, CAL-33, SCC-47
Experimental: as §1

[4] = system: cell lines engineered to express HPV16 E5; assay: Cell cycle arrest in cell lines engineered to express HPV16 E5; assay type: cell-based, murine and human
Experimental: as §1

[5] = system: CAL-27 cells; assay: Example 6 proliferation in vitro (MTT); assay type: cell-based, human; settings: 0-500 μM, 24 or 48 hours
Experimental: On day 1, CAL-27 cells were seeded in a 96-well plate (2-4×10^3 cells/well, medium 100 μl/well) and left overnight to allow the cells to attach to the plate. On day 2, varying concentrations of rimantadine (0 μM, 100 μM, 250 μM, or 500 μM) were added to the cells and allowed to incubate for 24 hours or 48 hours. On either day 3 or 4, the culture media was aspirated, and 100 μl/well of MTT solution (comprising an MTT concentration of 0.5 mg/ml; formed by dilution of thiazolyl blue tetrazolium bromide solution (SIGMA, Cat #M2128) with stock solution (5 mg/ml in PBS (−20° C.)) was added to the culture media. The cells were incubated in a CO2 incubator at 37° C. for 3 hours, and the MTT solution was aspirated. 100 μl/well of DMSO was then added and the cells were incubated for about 5 minutes. A OD570 nm (Ref 650 nm) was then read. Results of the experiment are shown in FIG. 2.

[6] = system: 4T1 tumor cells; assay: 4T1 tumor model in mice; assay type: in vivo, mouse; settings: 10 mg/kg IP once daily, 7 injections starting on day 6
[7] = system: T cells; assay: Proliferation of T cells; assay type: cell-based
[8] = system: glutamate, GABA, dopamine receptors
Source text: Next, a series of SPECT analyses as described in Schramm, N., et al. (2000).
The SPECT analyses comprise of treatment of the mice with radioligands specific to each receptor. For example, [^123I] IBZM has been documented to have a high affinity for the D2/3 dopamine receptor.

[9] = target: NR1/NR2B ionotropic receptor (Homo sapiens, UniProt Q05586+Q13224); assay: ScreenPatch assay (IonWorks Barracuda electrophysiology) on NR1/NR2B; settings: refers to Table 2
[10] = system: Tau; assay: RTqPCR gene expression of cell cycle proteins; assay type: cell-based
Experimental: (§2) Total RNA is extracted using TRIzol Reagent (Invitrogen) and reverse transcribed with qScript cDNA Synthesis Kit (Quanta BioSciences, Beverly, MA) according to the manufacturer's instructions. Quantitative PCR analysis is conducted by using KAPA SYBR […] FAST (KAPA Biosystems, Wilmington, MA) on the 7900HT Fast Real-Time PCR System (Applied Biosystems, Foster City, CA).

[11] = system: Stathmin; assay: RTqPCR gene expression of cell cycle proteins; assay type: cell-based
Experimental: as §2

[12] = system: E5-positive AT-84-E7; assay: Cell surface expression of MHC I (flow cytometry); assay type: cell-based
[13] = system: B16-OVA cells cocultured with B3Z cells; assay: B3Z activation assay; assay type: cell-based; settings: 100 μM, 24 hours before B3Z co-culture
Experimental: B16-OVA cells are seeded into a 96-well plate and treated with 100 μM […], […] or racemic rimantadine for 24 hours, prior to addition of B3Z cells. After 24 hours of co-culture, medium is removed and 100 μl of lysis buffer [0.155 mM chlorophenol red β-D-galactopyranoside (CPRG) (Roche), 0.125% Nonidet P-40 Alternative (EMDCalbiochem), and 9 mM MgCl2 (Sigma) in PBS] are added. After incubation for 4 hours at 37° C., the absorbance at 570 nm is determined on a TECAN infinite M200 microplate reader.

[14] = system: B16-OVA tumor cells; assay: B16-OVA tumor model in mice; assay type: in vivo, mouse; settings: for tumor sizes compared to control groups: 10 mg/kg IP once daily, 7 injections starting on day 10; for survival: with anti-PDL1 immunotherapy, mice harboring B16-OVA tumors
[15] = system: AT-84-E7 tumors; assay type: in vivo, mouse; settings: tumors which do not express E5
[16] = system: NMDA receptors; assay: ScreenPatch two-application protocol, agonist and antagonist format; assay type: cell-based, human; settings: first application; data not shown
Experimental: A two-application protocol was employed.
Agonist Format: The potential agonist effect of the test articles and the positive control antagonist, amantadine, were examined during first application.
To access open channel block type of inhibition, peak and steady state current amplitudes (between 4th and 5th seconds after agonist application) were measured (PCA and SSC respectively).

[17] = target: M2 channel pore (Influenza A virus, UniProt P06821); settings: one study; other studies found no difference; cited from earlier work
Sequence of M2 channel pore (P06821 whole entry): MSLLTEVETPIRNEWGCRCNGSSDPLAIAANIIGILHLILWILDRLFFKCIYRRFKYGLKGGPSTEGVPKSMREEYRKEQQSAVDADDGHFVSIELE

Sequence of NR1/NR2B ionotropic receptor (Q13224 27-1484, other chains not shown): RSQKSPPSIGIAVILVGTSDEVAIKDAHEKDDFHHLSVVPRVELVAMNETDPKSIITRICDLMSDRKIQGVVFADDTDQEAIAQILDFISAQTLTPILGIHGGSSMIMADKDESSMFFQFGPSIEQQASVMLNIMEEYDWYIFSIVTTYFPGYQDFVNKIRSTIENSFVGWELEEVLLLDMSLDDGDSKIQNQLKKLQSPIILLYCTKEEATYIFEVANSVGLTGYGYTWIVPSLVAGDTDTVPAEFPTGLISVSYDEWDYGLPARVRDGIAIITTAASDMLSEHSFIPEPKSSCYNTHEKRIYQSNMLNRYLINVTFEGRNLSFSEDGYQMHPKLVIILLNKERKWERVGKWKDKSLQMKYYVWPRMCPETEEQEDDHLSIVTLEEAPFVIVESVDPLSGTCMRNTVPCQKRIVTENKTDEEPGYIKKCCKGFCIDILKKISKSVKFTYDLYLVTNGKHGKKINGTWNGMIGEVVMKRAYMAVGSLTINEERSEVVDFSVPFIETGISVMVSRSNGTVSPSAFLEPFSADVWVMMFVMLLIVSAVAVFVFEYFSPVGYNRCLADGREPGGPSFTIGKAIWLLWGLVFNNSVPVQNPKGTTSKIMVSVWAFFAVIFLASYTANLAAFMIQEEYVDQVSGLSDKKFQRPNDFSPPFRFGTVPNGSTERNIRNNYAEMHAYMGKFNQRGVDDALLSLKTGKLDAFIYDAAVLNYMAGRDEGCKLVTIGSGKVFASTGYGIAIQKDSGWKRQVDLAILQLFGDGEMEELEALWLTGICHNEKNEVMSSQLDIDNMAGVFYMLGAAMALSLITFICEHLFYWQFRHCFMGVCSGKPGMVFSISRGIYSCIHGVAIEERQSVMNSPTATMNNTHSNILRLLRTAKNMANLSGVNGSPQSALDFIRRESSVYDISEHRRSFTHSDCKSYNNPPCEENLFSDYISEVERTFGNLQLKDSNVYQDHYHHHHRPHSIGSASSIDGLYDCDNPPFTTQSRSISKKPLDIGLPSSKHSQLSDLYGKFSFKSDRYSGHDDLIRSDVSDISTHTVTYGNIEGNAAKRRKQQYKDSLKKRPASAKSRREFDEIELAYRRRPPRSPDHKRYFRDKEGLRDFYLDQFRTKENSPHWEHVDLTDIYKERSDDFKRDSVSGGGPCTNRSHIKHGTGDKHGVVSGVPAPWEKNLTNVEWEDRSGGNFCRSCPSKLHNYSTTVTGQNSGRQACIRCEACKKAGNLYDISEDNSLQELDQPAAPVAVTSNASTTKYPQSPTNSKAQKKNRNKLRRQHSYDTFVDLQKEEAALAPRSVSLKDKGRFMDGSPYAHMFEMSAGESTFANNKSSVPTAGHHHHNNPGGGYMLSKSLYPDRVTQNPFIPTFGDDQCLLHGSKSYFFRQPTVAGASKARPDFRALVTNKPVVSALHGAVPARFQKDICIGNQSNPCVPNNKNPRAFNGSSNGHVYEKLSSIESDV

Row | Compound | cell cycle arrest [4] | tumor sizes compared to control groups [6] | proliferation of T cells [7] | gene expression of Tau [10] | gene expression of Stathmin [11] | cell surface expression of MHC I [12] | increase in recognition of model tumor antigen by B3Z cells [13] [fold] | tumor sizes compared to control groups [14] | survival [14] | anti-tumor effect [15] | further results
1 | CCN1CCC[C@H]1CNC(=O)c1c(OC)ccc([123I])c1O [[^123I] IBZM] | – | – | – | – | – | – | – | – | – | – | affinity for the D2/3 dopamine receptor [1]: high affinity
2 | CC(N)C12CC3CC(CC(C3)C1)C2 (stereo not shown) [rimantadine] | – | – | – | – | – | – | – | – | – | – | cell cycle arrest [2]: Significant cell cycle arrest; proliferation [3]: decreased
3 | C[C@H](N)C12CC3CC(CC(C3)C1)C2 [2-S rimantadine] | induce cell cycle arrest | statistically significant decreases | no significant effects | Decreases | significant decreases | restored | 3 | statistically significant decreases | significant improvement | decreased | cancer cell proliferation as compared to R-rimantadine or racemic rimantadine [5]: enhanced or equivalent; toxicity as a treatment for cancer as compared to 2-R rimantadine ([8]; Example 4): significantly less toxic; incidence of central nervous system adverse effects, compared with the other enantiomer ([8]; Example 5): higher incidence; toxicity as a treatment for cancer as compared to 2-R rimantadine ([8]; Example 5): significantly less toxic; inhibition of NR2B subunits as compared to 2-R rimantadine and racemic rimantadine [9]: to a lesser degree
4 | NC12CC3CC(CC(C3)C1)C2 [Amantadine, amantadine] | – | – | – | – | – | – | – | – | – | – | agonist effect: activation of NMDA receptors [16]: Neither test articles nor amantadine had produced significant activation
5 | C[C@@H](N)C12CC3CC(CC(C3)C1)C2 [2-R rimantadine] | induce cell cycle arrest | statistically significant decreases | no significant effects | Decreases | significant decreases | restored | 3 | statistically significant decreases | significant improvement | decreased | incidence of central nervous system adverse effects, compared with the other enantiomer ([8]; Example 4): higher incidence; affinity for M2 channel pore compared with the S-enantiomer [17]: greater affinity
